Measurements: patent US12473262B2, “Aryl hydrocarbon receptor activators” (Oregon State University, priority 2019, dated 2025)

Molecular target: aryl hydrocarbon receptor (AhR) (Mus musculus (Mouse), UniProt P30561)
Test: AhR ligand screening: AhRE-luciferase reporter in transfected Hepa1 cells
Type: cell-based
Conditions: for Fold @ 1 nM: fold change of luciferase expression at 1 nM test compound relative to vehicle (0.1% DMSO); for Fold @ 100 nM: fold change of luciferase expression at 100 nM test compound relative to vehicle (0.1% DMSO); for Fold @ 10 uM: fold change of luciferase expression at 10 uM test compound relative to vehicle (0.1% DMSO); for Fold relative to benchmark @ 100 nM: luciferase expression at 100 nM test compound relative to 100 nM benchmark compound 11-cl-BBQ
In short: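 Mouse Hepa1 cells transfected with an AhRE-luciferase reporter were plated at 1×10^4 cells/well, grown overnight, then exposed to compounds. Cell lysates were assayed for luciferase by luminometry, with results given as fold induction over 0.1% DMSO vehicle.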

aryl hydrocarbon receptor (AhR), sequence (P30561 10-805): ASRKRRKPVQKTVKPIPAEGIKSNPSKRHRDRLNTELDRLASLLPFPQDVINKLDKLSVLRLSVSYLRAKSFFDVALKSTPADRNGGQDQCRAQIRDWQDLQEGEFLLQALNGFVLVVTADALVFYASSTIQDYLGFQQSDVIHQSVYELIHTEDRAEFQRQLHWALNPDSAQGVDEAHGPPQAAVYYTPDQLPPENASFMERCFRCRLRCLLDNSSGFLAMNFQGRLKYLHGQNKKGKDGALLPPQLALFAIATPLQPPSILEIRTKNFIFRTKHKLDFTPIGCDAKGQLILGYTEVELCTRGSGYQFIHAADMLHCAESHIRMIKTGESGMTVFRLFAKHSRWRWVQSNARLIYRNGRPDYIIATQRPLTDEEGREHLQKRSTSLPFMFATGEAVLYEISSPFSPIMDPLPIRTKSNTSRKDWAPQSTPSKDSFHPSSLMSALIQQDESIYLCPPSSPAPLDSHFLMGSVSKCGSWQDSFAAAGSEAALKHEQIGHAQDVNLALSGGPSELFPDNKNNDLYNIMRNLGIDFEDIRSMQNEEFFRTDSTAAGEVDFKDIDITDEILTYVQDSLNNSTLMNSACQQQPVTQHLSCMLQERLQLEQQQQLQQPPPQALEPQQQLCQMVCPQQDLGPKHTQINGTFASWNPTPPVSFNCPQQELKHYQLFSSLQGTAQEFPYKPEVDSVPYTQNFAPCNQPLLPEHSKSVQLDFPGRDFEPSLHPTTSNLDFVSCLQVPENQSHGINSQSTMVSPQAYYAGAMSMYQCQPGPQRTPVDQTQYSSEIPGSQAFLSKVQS
aryl hydrocarbon receptor (AhR), sequence (P53762 whole entry partner): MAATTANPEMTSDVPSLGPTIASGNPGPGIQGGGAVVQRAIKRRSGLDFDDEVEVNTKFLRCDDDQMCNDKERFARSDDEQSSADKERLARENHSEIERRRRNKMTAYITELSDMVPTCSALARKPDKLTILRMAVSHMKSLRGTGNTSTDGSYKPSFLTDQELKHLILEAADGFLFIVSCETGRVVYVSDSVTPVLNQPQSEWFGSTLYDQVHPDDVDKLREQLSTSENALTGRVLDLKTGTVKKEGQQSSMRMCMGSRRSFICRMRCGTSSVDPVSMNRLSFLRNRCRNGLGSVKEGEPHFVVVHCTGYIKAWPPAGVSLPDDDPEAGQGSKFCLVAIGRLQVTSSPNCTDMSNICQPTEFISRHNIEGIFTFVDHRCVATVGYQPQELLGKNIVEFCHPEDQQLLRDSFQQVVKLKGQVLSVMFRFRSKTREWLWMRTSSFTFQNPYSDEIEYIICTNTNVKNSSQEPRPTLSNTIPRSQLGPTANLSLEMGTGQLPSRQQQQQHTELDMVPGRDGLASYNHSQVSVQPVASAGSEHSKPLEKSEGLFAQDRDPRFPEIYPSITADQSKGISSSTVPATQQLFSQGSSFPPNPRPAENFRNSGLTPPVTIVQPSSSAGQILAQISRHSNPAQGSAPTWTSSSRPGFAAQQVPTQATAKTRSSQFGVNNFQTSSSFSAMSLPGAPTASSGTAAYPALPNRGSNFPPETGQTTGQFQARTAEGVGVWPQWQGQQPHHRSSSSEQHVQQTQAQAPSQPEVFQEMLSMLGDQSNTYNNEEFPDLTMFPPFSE

Fold @ 1 nM [fold] | Fold @ 100 nM [fold] | Fold @ 10 uM [fold] | Fold relative to benchmark @ 100 nM [fold] | Structure (SMILES)
1 | 1 | 1 | 0.03 | O=C(c1ccc2nc(-c3cccc4ccccc34)n(S(=O)(=O)c3cccc(F)c3)c2c1)N1CCOCC1 [Compound 1357]
1 | 2 | 35 | 0.08 | Cc1ccc2c(c1)nc(-c1cccc3ccccc13)n2C(=O)c1ccccc1 [Compound 701]
1 | 1 | 5 | 0.04 | O=C(c1ccc(F)c(F)c1)n1c(-c2cccc3c2CCCC3)nc2cc(Cl)ccc21 [Compound 779]
1 | 28 | 32 | 1.08 | O=C(c1ccc(SC(F)(F)F)cc1)n1c(-c2cccc3ccccc23)nc2ccc(Cl)cc21 [Compound 687]
1 | 1 | 2 | 0.02 | O=C(c1ccc(C(F)(F)F)cc1)c1c[nH]c2ccc(Cl)cc12 [Compound 883]
1 | 2 | 34 | 0.07 | O=S(=O)(C1CC1)n1c(-c2cccc3ccccc23)nc2ccc(Cl)cc21 [Compound 784]
1 | 2 | 19 | 0.08 | O=C(c1ccc(F)c(F)c1)n1c(-c2cccc(C(F)(F)F)c2)nc2cc(Cl)ccc21 [Compound 788]
1 | 3 | 8 | 0.12 | O=C(c1ccccc1)n1c(-c2cccc(C(F)(F)F)c2)nc2ccc(Cl)cc21 [Compound 789]
1 | 1 | 6 | 0.03 | O=C(c1ccc2nc(-c3cccc4ccccc34)n(Cc3ccc(F)cc3)c2c1)N1CCOCC1 [Compound 1404]
1 | 3 | 48 | 0.06 | O=C(c1ccc(F)c(F)c1)n1c(-c2cccc(C(F)(F)F)c2Cl)nc2cc(Cl)ccc21 [Compound 875]
1 | 2 | 56 | 0.08 | O=C(c1ccc(F)c(F)c1)n1c(-c2ccc3ccccc3c2)nc2cc(Cl)ccc21 [Compound 684]
1 | 38 | 46 | 1.31 | O=C(c1cnc2ccccc2c1)n1c(-c2cccc3ccccc23)nc2ccc(Cl)cc21 [Compound 856]
1 | 25 | 40 | 1 | O=C(C1CC1)n1c(-c2cccc3ccccc23)nc2cc(Cl)ccc21 [Compound 773]
1 | 1 | 8 | 0.03 | O=C(c1ccc2c(c1)nc(-c1cccc3ccccc13)n2S(=O)(=O)c1ccc2ccccc2c1)N1CCCCC1 [Compound 1340]
1 | 2 | 18 | 0.04 | O=C(c1ccc(OC(F)(F)F)cc1)c1c[nH]c2ccc(Cl)cc12 [Compound 881]
1 | 1 | 2 | 0.03 | COC(=O)c1ccc2c(c1)nc(-c1cccc3ccccc13)n2Cc1ccc(F)c(F)c1 [Compound 1338]
1 | 22 | 51 | 0.85 | O=C(c1ccc(OC(F)(F)F)cc1)n1c(-c2cccc3ccccc23)nc2cc(Cl)ccc21 [Compound 696]
1 | 12 | 80 | 0.41 | O=C(C1CCCCC1)n1c(-c2cc3ccccc3o2)nc2cc(Cl)ccc21 [Compound 859]
1 | 1 | 4 | 0.03 | O=C(c1ccc2c(c1)nc(-c1cccc3ccccc13)n2Cc1ccc(SC(F)(F)F)cc1)N1CCCCC1 [Compound 1411]
1 | 1 | 10 | 0.02 | O=C(c1c[nH]c2ccc(Cl)cc12)C1CCCCC1 [Compound 895]
1 | 1 | 13 | 0.03 | Clc1ccc2c(c1)nc(-c1cccc3ccccc13)n2Cc1ccccc1 [Compound 533, 1-benzyl-5-chloro-2-(naphthalen-1-yl)-1H-benzimidazole]
1 | 2 | 2 | 0.07 | COC(=O)c1ccc2c(c1)nc(-c1cccc3ccccc13)n2C(=O)c1ccc(OC(F)(F)F)cc1 [Compound 1342]

Continued, compound first:

Structure (SMILES) | Fold @ 1 nM [fold] | Fold @ 100 nM [fold] | Fold @ 10 uM [fold] | Fold relative to benchmark @ 100 nM [fold]
O=C(c1ccc2nc(-c3cccc4ccccc34)n(S(=O)(=O)c3ccc4ccccc4c3)c2c1)N1CCOCC1 [Compound 1389] | 1 | 1 | 3 | 0.03
CN1CCN(C(=O)c2ccc3nc(-c4cccc5ccccc45)n(S(=O)(=O)c4cccc(F)c4)c3c2)CC1 [Compound 1393] | 1 | 1 | 4 | 0.03
N#Cc1ccc(S(=O)(=O)n2c(-c3cccc4ccccc34)nc3cc(C(=O)N4CCCCC4)ccc32)cc1 [Compound 1336] | 1 | 1 | 6 | 0.03
O=C(c1ccc(F)cc1F)n1c(-c2cccc3ccccc23)nc2cc(Cl)ccc21 [Compound 695] | 1 | 23 | 30 | 0.88
O=c1c2cccc3cccc(c32)c2nc3ccccc3n12 [Compound 523] | 1.8 | 11.5 | 12 | 0.82
O=C(c1ccc2nc(-c3cccc4ccccc34)n(Cc3ccc(F)c(F)c3)c2c1)N1CCOCC1 [Compound 1330] | 1 | 1 | 1 | 0.03
O=C(c1cc2cc(Cl)ccc2o1)c1cccc2ccccc12 [Compound 406, (5-chlorobenzofuran-2-yl)(naphthalen-1-yl)methanone] | 1 | 1 | 7.5 | 0.03
O=C(c1cccc2ccccc12)n1ccc2cc(Cl)ccc21 [Compound 366] | 1 | 1 | 11 | 0.03
O=C(c1ccc(F)c(F)c1)n1c(-c2cccc(-c3ccccc3)c2)nc2ccc(Cl)cc21 [Compound 772] | 1 | 1 | 1 | 0.04
O=C(c1cccc2ccccc12)c1c[nH]c2cc(Cl)ccc12 [Compound 433] | 1 | 1 | 7 | 0.03
O=C(c1ccc2nc(-c3cccc4ccccc34)n(Cc3cccc4ccccc34)c2c1)N1CCOCC1 [Compound 1409] | 1 | 1 | 4 | 0.03
COC(=O)c1ccc2[nH]c(-c3cccc4ccccc34)nc2c1 [Compound 1360] | 1 | 2 | 18 | 0.07
Cc1cccc(-c2nc3cc(Cl)ccc3n2C(=O)c2ccc(F)c(F)c2)c1Cl [Compound 791] | 1 | 1 | 26 | 0.04
COC(=O)c1ccc2c(c1)nc(-c1cccc3ccccc13)n2S(=O)(=O)c1ccc(Cl)cc1 [Compound 1385] | 1 | 2 | 5 | 0.07
COC(=O)c1ccc2c(c1)nc(-c1cccc3ccccc13)n2S(=O)(=O)c1ccc(C#N)cc1 [Compound 1361] | 1 | 2 | 2 | 0.07
O=C(c1cccc2ccccc12)n1c(-c2ccccc2)nc2cc(Cl)ccc21 [Compound 490, (5-chloro-2-phenyl-1H-benzo[d]imidazol-1-yl)(naphthalen-1-yl)methanone] | 1 | 1 | 17 | 0.03
